From publication PMC12673578 (Molecular Pharmaceutics, 2025)
Where “and” joins values, the source holds several entries; their conditions need not be identical. Identical values can stand only once. Like-named read-outs stand apart in the source and are kept apart here.

Key:
CYP3A = settings: ketoconazole coadministered, literature value, cited from earlier work
rCYP2B6 = rCYP2B6 (Homo sapiens, UniProt P20813)
Method: (§1) The samples were analyzed using an LC-MS/MS system consisting of microflow LC and Xevo-TQ-XS MS systems (Waters, Milford, MA). An Acquity UPLC HSS T3 C18 column ([…]) equipped with a guard column (Vanguard precolumn, […], 2.1 × 5 mm) was used for the analysis. […] The mass spectrometer was operated in multiple reaction monitoring (MRM) and positive ionization modes with a cone voltage of 30 V using an electrospray ionization source.
(§2) The relative expression factor (REF) for the rCYPs and rCES was calculated by using eq . 2 REF=CYPorCEScontentinpooledHLM(permgprotein)/CYPorCES content in the recombinant system (per mg protein)
(§3) 3 Rateofmetabolism=Vmax×S/Km+S
(§4) The CLint, total for each isoform was then multiplied with the respective REF values, and fraction metabolized (f m) is calculated as shown in eq . 4 fm,CYPi=ScaledCLint,total,2−oxo−clopidogrelCYPi/ScaledactivityCYPall×100

rCYP2C19 = rCYP2C19 (Homo sapiens, UniProt P33261)
Method: as §1, §2, §3, §4

rCYP1A2 = rCYP1A2 (Homo sapiens, UniProt P05177)
Method: as §1, §2, §3, §4

rCYP2C9 = rCYP2C9 (Homo sapiens, UniProt P11712)
Method: as §1, §2, §3, §4

rCES1 = rCES1 (Homo sapiens, UniProt P23141); settings: rCES1 0.1 mg/mL, clopidogrel 0.9–240 μM, 30 min, 37 °C
Method: (§5) The samples were analyzed using an LC-MS/MS system consisting of microflow LC and Xevo-TQ-XS MS systems (Waters, Milford, MA). An Acquity UPLC HSS T3 C18 column (1.8 mm, 1 mm × 100 × 100 mm) equipped with a guard column (Vanguard precolumn, 1.8 mm, 2.1 × 5 mm) was used for the analysis. […] The mass spectrometer was operated in multiple reaction monitoring (MRM) and positive ionization modes with a cone voltage of 30 V using an electrospray ionization source.

[1] = pooled fractions 0.5 mg/mL, clopidogrel 150 μM
Method: The protein concentration was maintained at 0.5 mg/mL, and all incubations were conducted in triplicates in a water bath shaker at 37 °C with incubation volumes of 100 μL each. […] Samples were centrifuged at 10,000g for 5 min (4 °C), and the supernatants were collected and diluted 10-fold using a 75:25 (0.1% formic acid in ACN/0.1% formic acid in water) solution before being transferred to an LC-MS vial for analysis.
as §5

[2] = following oral administration; literature value; cited from earlier work
CES1 G143E variant = settings: second cited study; literature value; cited from earlier work
not read = substrate: COC(=O)[C@H](c1ccccc1Cl)N1CCc2sccc2C1; assay: not read; settings: 5 min, 37 °C
[3] = other: rCYP2C19, clopidogrel 0.3–160 μM
[4] = other: rCYP2C9, clopidogrel 0.3–160 μM
[5] = other: rCYP1A2, clopidogrel 0.3–160 μM

rCYP2B6, sequence (P20813 whole entry): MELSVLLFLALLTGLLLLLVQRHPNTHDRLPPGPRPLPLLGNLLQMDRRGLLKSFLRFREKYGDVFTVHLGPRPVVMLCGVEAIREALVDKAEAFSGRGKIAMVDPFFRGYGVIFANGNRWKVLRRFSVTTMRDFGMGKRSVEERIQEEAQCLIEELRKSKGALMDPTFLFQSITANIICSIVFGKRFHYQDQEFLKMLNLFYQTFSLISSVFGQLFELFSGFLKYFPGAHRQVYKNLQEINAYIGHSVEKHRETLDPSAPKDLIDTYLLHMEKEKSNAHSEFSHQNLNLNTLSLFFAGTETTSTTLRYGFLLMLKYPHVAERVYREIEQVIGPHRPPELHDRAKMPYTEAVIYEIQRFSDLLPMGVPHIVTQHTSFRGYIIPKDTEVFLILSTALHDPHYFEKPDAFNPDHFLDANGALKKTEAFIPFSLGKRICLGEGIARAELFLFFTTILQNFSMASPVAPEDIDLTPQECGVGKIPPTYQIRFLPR
rCES1, sequence (P23141 18-567): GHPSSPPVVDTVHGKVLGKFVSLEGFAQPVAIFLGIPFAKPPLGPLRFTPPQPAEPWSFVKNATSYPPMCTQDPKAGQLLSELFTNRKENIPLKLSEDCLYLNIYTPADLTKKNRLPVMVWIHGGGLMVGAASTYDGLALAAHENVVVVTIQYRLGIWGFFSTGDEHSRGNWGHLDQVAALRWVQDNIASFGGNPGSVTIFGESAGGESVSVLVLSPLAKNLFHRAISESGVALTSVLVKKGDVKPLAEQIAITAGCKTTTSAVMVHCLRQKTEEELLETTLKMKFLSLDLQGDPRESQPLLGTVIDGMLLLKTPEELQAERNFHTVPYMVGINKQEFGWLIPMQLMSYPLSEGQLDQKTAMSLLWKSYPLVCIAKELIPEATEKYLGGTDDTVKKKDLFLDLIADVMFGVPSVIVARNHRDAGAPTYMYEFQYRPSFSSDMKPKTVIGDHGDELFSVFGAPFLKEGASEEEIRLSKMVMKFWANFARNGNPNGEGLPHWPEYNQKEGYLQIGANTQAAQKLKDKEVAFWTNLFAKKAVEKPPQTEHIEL

CC(=O)N1CCN(c2ccc(OCC3COC(Cn4ccnc4)(c4ccc(Cl)cc4Cl)O3)cc2)CC1 (centres unmarked) [Ketoconazole, ketoconazole]
Reduction of AUC0–24 of clopidogrel active metabolite (CYP3A; after 75 mg clopidogrel maintenance dose (MD)): 29% | Reduction of AUC0–24 of clopidogrel active metabolite (CYP3A; after 300 mg clopidogrel loading dose (LD)): 22% | Decrease of C max of the active metabolite (CYP3A; following LD): 48% | Decrease of C max of the active metabolite (CYP3A; following MD): 61%

COC(=O)[C@H](c1ccccc1Cl)N1CCc2sccc2C1 [clopidogrel]
CLint (rCYP2B6): 15.8 μL/mg protein/min | CLint *REF (rCYP2B6): 0.09 μL/mg protein/min | f m (rCYP2B6): 1.5% | CLint (V max/K m) (rCYP2B6; recombinant enzyme): 1.8 μL/pmol P450/min | f m (rCYP2C19; fraction of 2-oxo-clopidogrel formation by CYP2C19): 0.1% | K m of 2-oxo-clopidogrel formation (rCYP2C19; rCYP2C19): 13.8 ± 5.5 µM and 13.8 µM | f m (rCYP1A2; fraction of 2-oxo-clopidogrel formation by CYP1A2): 0.6% | K m of 2-oxo-clopidogrel formation (rCYP1A2; rCYP1A2): 17.0 µM | f m (rCYP2C9; fraction of 2-oxo-clopidogrel formation by CYP2C9): 40.3% | K m of 2-oxo-clopidogrel formation (rCYP2C9; rCYP2C9): 20.6 µM | K m for CCA formation (rCES1): 14.92 ± 4.8 µM | CCA formation rate normalized with CES1 content (pmol/min/pmol CES1) in HLS9 versus HLM [1]: two-fold higher | Rate of formation of 2-oxo-clopidogrel in HLM (pmol/min/mg protein) versus HLS9 [1]: two-fold higher | Rate of formation of CCA in HLM (pmol/min/mg protein) versus HLS9 [1]: two-fold higher | Fraction of the drug absorbed [2]: approximately 50% | Increase in platelet aggregation inhibition in G143E carriers compared to noncarriers (CES1 G143E variant): 19%

B1: rCYP2C19 (Homo sapiens) (protein)
chain: MDPFVVLVLCLSCLLLLSIWRQSSGRGKLPPGPTPLPVIGNILQIDIKDVSKSLTNLSKIYGPVFTLYFGLERMVVLHGYEVVKEALIDLGEEFSGRGHFPLAERANRGFGIVFSNGKRWKEIRRFSLMTLRNFGMGKRSIEDRVQEEARCLVEELRKTKASPCDPTFILGCAPCNVICSIIFQKRFDYKDQQFLNLMEKLNENIRIVSTPWIQICNNFPTIIDYFPGTHNKLLKNLAFMESDILEKVKEHQESMDINNPRDFIDCFLIKMEKEKQNQQSEFTIENLVITAADLLGAGTETTSTTLRYALLLLLKHPEVTAKVQEEIERVIGRNRSPCMQDRGHMPYTDAVVHEVQRYIDLIPTSLPHAVTCDVKFRNYLIPKGTTILTSLTSVLHDNKEFPNPEMFDPRHFLDEGGNFKKSNYFMPFSAGKRICVGEGLARMELFLFLTFILQNFNLKSLIDPKDLDTTPVVNGFASVPPFYQLCFIPV
kcat (not read; [3]): 0.36 s⁻¹ | kcat/Km (not read; [3]): 1.6 μL/pmol P450/min

B2: rCYP2C9 (Homo sapiens) (protein)
chain: MDSLVVLVLCLSCLLLLSLWRQSSGRGKLPPGPTPLPVIGNILQIGIKDISKSLTNLSKVYGPVFTLYFGLKPIVVLHGYEAVKEALIDLGEEFSGRGIFPLAERANRGFGIVFSNGKKWKEIRRFSLMTLRNFGMGKRSIEDRVQEEARCLVEELRKTKASPCDPTFILGCAPCNVICSIIFHKRFDYKDQQFLNLMEKLNENIKILSSPWIQICNNFSPIIDYFPGTHNKLLKNVAFMKSYILEKVKEHQESMDMNNPQDFIDCFLMKMEKEKHNQPSEFTIESLENTAVDLFGAGTETTSTTLRYALLLLLKHPEVTAKVQEEIERVIGRNRSPCMQDRSHMPYTDAVVHEVQRYIDLLPTSLPHAVTCDIKFRNYLIPKGTTILISLTSVLHDNKEFPNPEMFDPHHFLDEGGNFKKSKYFMPFSAGKRICVGEALAGMELFLFLTSILQNFNLKSLVDPKNLDTTPVVNGFASVPPFYQLCFIPV
kcat (not read; [4]): 0.387 s⁻¹ | kcat/Km (not read; [4]): 1.1 μL/pmol P450/min

B3: rCYP1A2 (Homo sapiens) (protein)
chain: MALSQSVPFSATELLLASAIFCLVFWVLKGLRPRVPKGLKSPPEPWGWPLLGHVLTLGKNPHLALSRMSQRYGDVLQIRIGSTPVLVLSRLDTIRQALVRQGDDFKGRPDLYTSTLITDGQSLTFSTDSGPVWAARRRLAQNALNTFSIASDPASSSSCYLEEHVSKEAKALISRLQELMAGPGHFDPYNQVVVSVANVIGAMCFGQHFPESSDEMLSLVKNTHEFVETASSGNPLDFFPILRYLPNPALQRFKAFNQRFLWFLQKTVQEHYQDFDKNSVRDITGALFKHSKKGPRASGNLIPQEKIVNLVNDIFGAGFDTVTTAISWSLMYLVTKPEIQRKIQKELDTVIGRERRPRLSDRPQLPYLEAFILETFRHSSFLPFTIPHSTTRDTTLNGFYIPKKCCVFVNQWQVNHDPELWEDPSEFRPERFLTADGTAINKPLSEKMMLFGMGKRRCIGEVLAKWEIFLFLAILLQQLEFSVPPGVKVDLTPIYGLTMKHARCEHVQARLRFSIN
kcat (not read; [5]): 0.258 s⁻¹ | kcat/Km (not read; [5]): 0.9 μL/pmol P450/min
